Assay results reported in patent US8367659B2, “Oxazinyl isoflavonoid compounds, medicaments and use” (Marshall Edwards, Inc., priority 2007, dated 2013).

Tests used:
[1] = test system: red blood cells (RBC); test: Peroxyl radical (AAPH)-induced red blood cell lysis; format: cell-based; details: for Time taken to reach half-lysis, time: test compounds at 10 μM, vehicle 40.0
Protocol: Freshly collected heparinised venous blood (10 ml, on ice) was aliquotted into 1.8 ml sterile Eppendorf tubes and centrifuged for 10 minutes at 2600 rpm at 4° C. Plasma and buffy coat layers were removed (approximately […]) and packed red blood cells (RBC) were then washed by the addition of […], ice cold PBS. This washing procedure was repeated twice. Packed RBC were resuspended by the addition of 900 ml of ice-cold, sterile PBS (and termed RBC stock). RBC stocks were stored at 4° C. for a maximum of three days. All working suspensions of RBC were prepared fresh daily by diluting […] of RBC stock into 10 ml of ice-cold, sterile PBS and […] added to each well.
Stocks of AAPH were freshly prepared for individual experiments as follows. AAPH (1.22 gm) was dissolved in 7.5 ml of PBS to yield a 4× stock at 600 mM and […] aliquots (final concentration of 150 mM) were then added to each well to initiate the lysis assay. Stock solutions of test compounds (40 mM in 100% DMSO) were diluted in sterile PBS to yield final concentrations of […] per well. Appropriate controls were included in each experiment. All compound dilutions were adjusted to give final DMSO concentrations in each well of 0.25%. Peroxy-induced RBC lysis assays were performed in 96-flat bottom well microtitre plates with a total volume of […] per well. Turbidity of RBC suspensions were monitored using a Tecan microplate reader at 690 nm (37° C.) with gentle vortexing. Assays were performed in quadruplicate and readings were taken every 5 minutes over 5 hours. RBC lysis curves were constructed by plotting absorbance (mean of 4 readings) against time. Time to half-lysis was calculated by taking the highest absorbance reading (no lysis) and the lowest absorbance reading (maximum lysis). The sum of these two readings divided by two gave the absorbance at half-lysis. Simple regression analysis was used to calculate the time at which half-lysis absorbance occurred.
This comparative study was conducted according to the assay method set out in the example at Section 3.3 above.

[2] = test system: E-selectin; test: TNFα-induced E-selectin expression in human arterial endothelial cells (ELISA); format: cell-based
Protocol: Inhibition of TNFα-stimulated endothelial cell activation by compounds was assessed by measuring surface expression of cell adhesion molecules with an ELISA method. Human arterial endothelial cells (HAEC) in growth medium (Cell Applications Inc.) were seeded into 96-well plates at a density of 10,000 cells per well. Plates were incubated overnight at 37° C. in a humidified incubator to allow for cells to become confluent. On the morning of the experiment, TNFα (10 μl, 2 ng/ml) was added to each well, which contained 100 μl of medium. Compounds were diluted in DMSO-containing medium (2.5% DMSO) to give a compound concentration of 100 and 300 μM. Compounds were added to wells so that final concentrations were 10 and 30 μM. DMSO-containing medium alone was added to zero concentration control wells. All samples were measured in quadruplicate (4 wells per treatment).
After incubation with compound, medium was removed and cells were probed with either non-specific IgG or specific mouse antibodies against E-selectin, ICAM or VCAM (BD Biosciences—0.1 μg in 100 μL buffered saline with 10% heat-inactivated human serum). Adhesion molecule expression was detected by addition of sheep anti-mouse antibody/horseradish peroxidase conjugate. […] Optical density was measured at 405 nm with an ELISA reader (Titertek Multiscan, Flow Laboratories). […]

[3] = test system: NFκB-promoter activity in TNFa-stimulated THP-1 monocyte/macrophages; test: NFκB promoter activity in TNFα-stimulated THP-1 cells (beta-lactamase reporter); format: cell-based, human; details: for inhibition at 30 µM: Homo sapiens, THP-1, read-out: % inhibition compared to control; for inhibition at 30 µM / Inflammatory index: test compound 30 μM; for Inflammatory index: control 11.56 ± 0.49
Protocol: The assay utilizes a genetically modified THP-1 cell line and GeneBLAzer® beta-lactamase technology (Invitrogen Corp). The human THP-1 monocyte/macrophages contain a stably-transfected beta-lactamase reporter gene under control of the NFκB response element They respond to stimulation with TNF-a, which leads to activation of the NFκB signaling pathway. Co-incubation of cells with TNF-a and test material allows quantitative determination of the ability of test material to inhibit TNFa-stimulated beta-lactamase production. Inflammatory index is calculated as the ratio of beta-lactamase product to beta-lactamase substrate. In brief, genetically modified THP-1 cells were seeded into wells of a 96-well plate (50×10^3 cells/well) in the presence of RPMI 1640 medium (70 μl). TNFα was added to each well (10 μl) to give a final concentration of 7.5 ng/ml. Dialyzed bovine serum was added (10 μl). Compounds dissolved in DMSO (10 μL) were then added (5 wells for each compound). Each plate contained a no-cell control (4 wells), a no-serum control (4 wells) and two serum controls. Plates were incubated for 5 h at 37° C. to allow for NFκB-stimulated beta-lactamase production. LiveBLAzer™ FRET B/G Substrate (CCF4-AM) substrate was then added to assay. CCF4-AM is a Forster resonance energy transfer (FRET) based substrate for beta-lactamase developed by Invitrogen Corp. Once CCFA-AM enters a cell, it is converted to negatively charged CCF4 by endogenous esterases. Excitation of this substrate at 409 nm leads to efficient FRET between the coumarin and fluorescein moieties, resulting in a green fluorescence detectable at 530 nm. The presence of beta-lactamase leads to cleavage of CCF4 and results in a loss of FRET, resulting in a robust blue fluorescent signal detectable at 460 nm. Thus, activity of beta-lactamase (a marker of NFκB-promoter activity) is measured as a product to substrate ratio (blue/green fluorescence ratio: 460 nm/530 nm). The determination of inflammatory index has a within-plate CV of 2.1% and a between-plate CV of 8.9% This comparative study was conducted according to the assay method set out in the example at Section 2.4 above.

SMILES	Time taken to reach half-lysis, time ([1]; Table 8) [min]	Time taken to reach half-lysis, time ([1]; comparative, Table 14) [min]	inhibition of E-selectin expression ([2]; TNFα-stimulated HAEC, 4 hrs, FIG. 18) [%]	inhibition at 30 µM [3] [%]	Inflammatory index [3]	antioxidant activity, AAPH-induced time to half-lysis of red blood cells [1]	effect on TNFα-induced E-selectin expression ([2]; HAEC, 10 μM found most appropriate for comparing)	NFκB inhibition ([3]; 30 μM, FIG. 19)
Oc1ccc(C2=Cc3cc4c(cc3OC2)OCN(Cc2ccccc2)C4)cc1 [Compound 1, 4-(3-Benzyl-2,3,4,8-tetrahydrochromeno[6,7-e][1,3]oxazin-7-yl)phenol]	141.6	141.6	> 50	45.5	6.31 ± 0.36	–	–	–
CC(c1ccccc1)N1COc2cc3c(cc2C1)C=C(c1ccc(O)cc1)CO3 (stereo not shown) [Compound 2, 4-(3-(1-Phenylethyl)-2,3,4,8-tetrahydrochromeno[6,7-e][1,3]oxazin-7-yl)phenol]	124.3	–	–	34.8	7.54 ± 0.17	delaying the AAPH-induced time to half-lysis	–	–
Oc1cccc(C2=Cc3ccc(O)cc3OC2)c1 [Compound 37-DHE, 3′,7-dihydroxy-isoflav-3-ene, reference compound]	–	126.6	–	–	–	delaying the AAPH-induced time to half-lysis	less pronounced	inhibited NFκB
